Measurements reported in ChEMBL document CHEMBL2417417, “Chemical variation from the neoantimycin depsipeptide assembly line” (Bioorg Med Chem Lett, 2013).
Calls of active or inactive are those of the source. No cut-off for these calls is given here.

The compounds below were run on HT-29 (assay: Antiproliferative activity against human HT-29 cells at 100 uM up to 15 hrs by non-radioactive cell proliferation assay).
Type: functional, cell-based

Structure (SMILES) | Activity
CC[C@H](C)[C@@H]1OC(=O)C(C)(C)[C@@H](O)[C@@H](Cc2ccccc2)OC(=O)[C@H](C)OC(=O)[C@@H](NC(=O)c2cccc(NC=O)c2O)[C@H](C)OC1=O | inactive
CC(C)[C@@H]1OC(=O)[C@@H](NC(=O)c2cccc(NC=O)c2O)[C@H](C)OC(=O)[C@H](C(C)C)OC(=O)C(C)(C)[C@@H](O)[C@@H](Cc2ccccc2)OC1=O | inactive
CC[C@H](C)[C@@H]1OC(=O)C(C)(C)[C@@H](O)[C@@H](Cc2ccccc2)OC(=O)[C@H](C(C)C)OC(=O)[C@@H](NC(=O)c2cccc(N)c2O)[C@H](C)OC1=O | inactive
CC(C)[C@@H]1OC(=O)[C@@H](NC(=O)c2cccc(N)c2O)[C@H](C)OC(=O)[C@H](C(C)C)OC(=O)C(C)(C)[C@@H](O)[C@@H](Cc2ccccc2)OC1=O | inactive
CC[C@H](C)[C@@H]1OC(=O)C(C)(C)[C@@H](O)[C@@H](Cc2ccccc2)OC(=O)[C@H](C(C)C)OC(=O)[C@@H](NC(=O)c2cccc(NC=O)c2O)[C@H](C)OC1=O | inactive
CC[C@H](C)[C@@H]1OC(=O)C(C)(C)[C@@H](O)[C@@H](Cc2ccccc2)OC(=O)[C@H](C)OC(=O)[C@@H](NC(=O)c2cccc(N)c2O)[C@H](C)OC1=O | inactive
